Counter-ions that a name gives are not always drawn.
Each compound was assayed against T1, haematopoietic prostaglandin D synthase (H-PGDS) (Homo sapiens, UniProt O60760) (assay: H-PGDS RapidFire high throughput mass spectrometry assay (conversion of PGH2 to PGD2)). Conditions: 10 nM H-PGDS, PGH2 formed in situ by COX-2 from arachidonic acid; read-out: Potency Range (mean pIC50) (converted).
T1 construct: Full length human H-PGDS cDNA (Invitrogen Ultimate ORF 10H13026) was amplified by PCR; 6-His (N); TEV protease cleavage site (N); made in house; host or cells: E. coli BL21 (DE3*), vector pET22b+
T1 sequence (O60760 whole entry): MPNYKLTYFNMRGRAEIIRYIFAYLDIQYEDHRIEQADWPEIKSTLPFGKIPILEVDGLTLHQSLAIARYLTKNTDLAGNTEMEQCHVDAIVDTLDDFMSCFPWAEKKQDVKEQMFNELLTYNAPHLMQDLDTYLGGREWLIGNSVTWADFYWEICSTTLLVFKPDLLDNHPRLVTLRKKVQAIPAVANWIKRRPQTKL
Assay type: biochemical
Summary of the method: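 RapidFire SPE–MS read-out calculated percent conversion from relative PGD2 and PGF2α (substrate surrogate) levels. Recombinant full-length human H-PGDS (His-tag, E. coli) turned over PGH2, produced in situ at ˜10 μM by human COX-2 (FLAG-tag, Sf9 cells) acting on arachidonic acid.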
`CC(C)(O)Cc1cnc(NC(=O)[C@H]2C[C@H](Oc3cccc4cccnc34)C2)s1` [Example 213, (trans)-N-(5-(2-Hydroxy-2-methylpropyl)thiazol-2-yl)-3-(quinolin-8-yloxy)cyclobutanecarboxamide] showed an IC50 of 10 to 79.4 nM.
In the case of `CC(C)(O)CO[C@H]1CC[C@H](NC(=O)[C@H]2C[C@H](Oc3cc(F)ccc3OC(F)F)C2)CC1` [Example 33, (trans)-3-(2-(Difluoromethoxy)-5-fluorophenoxy)-N-((trans)-4-(2-hydroxy-2-methylpropoxy)cyclohexyl)cyclobutanecarboxamide], the IC50 is reported as 10 to 79.4 nM.
`Cn1nc(C2CC2)cc1NC(=O)[C@H]1C[C@H](Oc2cccc3cccnc23)C1` [Example 214, (trans)-N-(3-Cyclopropyl-1-methyl-1H-pyrazol-5-yl)-3-(quinolin-8-yloxy)cyclobutanecarboxamide] gave an IC50 of 100 to 1000 nM.
`O=C(Nc1nccs1)[C@H]1C[C@H](Oc2cccc3[nH]cnc23)C1` [Example 297, (trans)-3-((1H-Benzo[d]imidazol-4-yl)oxy)-N-(thiazol-2-yl)cyclobutanecarboxamide, di-trifluoroacetic acid salt] was tested, and the IC50 was 100 to 1000 nM.
For `Cc1cccc(NC(=O)[C@H]2C[C@H](Oc3cccc4cccnc34)C2)n1` [Example 181, (trans)-N-(6-Methylpyridin-2-yl)-3-(quinolin-8-yloxy)cyclobutanecarboxamide], the IC50 was 10 to 79.4 nM.
Compound `CC(=O)c1csc(NC(=O)[C@H]2C[C@H](Oc3ccccc3OC(F)F)C2)n1` [Example 279] has an IC50 of 10 to 79.4 nM.
`Cc1cnnc(N2CC(NC(=O)[C@H]3C[C@H](Oc4cccc5scnc45)C3)C2)c1` [Example 241, (trans)-3-(Benzo[d]thiazol-4-yloxy)-N-(1-(5-methylpyridazin-3-yl)azetidin-3-yl)cyclobutanecarboxamide, trifluoroacetic acid salt] showed an IC50 of 10 to 79.4 nM.
Work on `CCC(=O)C1CC2(CC(NC(=O)[C@H]3C[C@H](Oc4cc(F)cc5scnc45)C3)C2)C1` (stereo partly drawn) [Example 233, (trans)-3-((6-Fluorobenzo[d]thiazol-4-yl)oxy)-N-(6-propionylspiro[3.31]heptan-2-yl)cyclobutanecarboxamide] yielded an IC50 of 10 to 79.4 nM.
`COc1ccc(F)cc1O[C@H]1C[C@H](C(=O)N[C@H]2CC[C@H](NC(C)C(F)(F)F)CC2)C1` (mixture of isomers) [Example 161, Racemic (trans)-3-(5-Fluoro-2-methoxyphenoxy)-N-((trans)-4-((1,1,1-trifluoropropan-2-yl)amino)cyclohexyl)cyclobutanecarboxamide] showed an IC50 of 10 to 79.4 nM.
Compound `COC(=O)N1CCCC(NC(=O)N2CC(Oc3cccc4scnc34)C2)C1` (racemic) [Example 93, Racemic Methyl 3-(3-(benzo[d]thiazol-4-yloxy)azetidine-1-carboxamido)piperidine-1-carboxylate] has an IC50 of 100 to 1000 nM.
With `Cc1nnc(NC(=O)N2CC(Oc3cccc4scnc34)C2)s1` [Example 321, 3-(Benzo[d]thiazol-4-yloxy)-N-(5-methyl-1,3,4-thiadiazol-2-yl)azetidine-1-carboxamide] the IC50 was 10 to 79.4 nM.
Work on `N#Cc1csc(NC(=O)[C@H]2C[C@H](Oc3cccc4cccnc34)C2)n1` [Example 188, (trans)-N-(4-Cyanothiazol-2-yl)-3-(quinolin-8-yloxy)cyclobutanecarboxamide, trifluoroacetic acid salt] yielded an IC50 of under 10 nM.
Compound `CCOC(=O)c1coc(NC(=O)[C@H]2C[C@H](Oc3cccc4cccnc34)C2)n1` [Example 171, ethyl 2-((trans)-3-(quinolin-8-yloxy)cyclobutanecarboxamido)oxazole-4-carboxylate] has an IC50 of 10 to 79.4 nM.
Work on `CC(C)(O)[C@H]1C[C@H](NC(=O)[C@H]2C[C@H](Oc3cc(F)cc4cccnc34)C2)C1` [Example 293, (trans)-3-((6-Fluoroquinolin-8-yl)oxy)-N-((trans)-3-(2-hydroxypropan-2-yl)cyclobutyl)cyclobutanecarboxamide] yielded an IC50 of 100 to 1000 nM.
`O=C(N[C@H]1CC[C@H](N[C@@H](CO)C(F)(F)F)CC1)N1CC(Oc2cccc3scnc23)C1` [Example 53, 3-(Benzo[d]thiazol-4-yloxy)-N-((trans)-4-(((S)-1,1,1-trifluoro-3-hydroxypropan-2-yl)amino)cyclohexyl)azetidine-1-carboxamide] showed an IC50 of 10 to 79.4 nM.
Compound `CC(C)(O)c1cnc(NC(=O)[C@H]2C[C@H](Oc3cccc4ccoc34)C2)s1` [Example 265, (trans)-3-(Benzofuran-7-yloxy)-N-(5-(2-hydroxypropan-2-yl)thiazol-2-yl)cyclobutanecarboxamide] has an IC50 of 10 to 79.4 nM.
With `Cn1nc(C2CC2)cc1NC(=O)N1CC(Oc2cccc3scnc23)C1` [Example 314, 3-(Benzo[d]thiazol-4-yloxy)-N-(3-cyclopropyl-1-methyl-1H-pyrazol-5-yl)azetidine-1-carboxamide] the IC50 was 10 to 79.4 nM.
`CC(C)(O)C1CC2(CC(NC(=O)[C@H]3C[C@H](Oc4cccc5cccnc45)C3)C2)C1` (mixture of isomers) [Example 170, Racemic (trans)-N-(6-(2-Hydroxypropan-2-yl)spiro[3.3]heptan-2-yl)-3-(quinolin-8-yloxy)cyclobutanecarboxamide] gave an IC50 of 10 to 79.4 nM.
`O=C(Nc1nnc(C2CC2)s1)N1CC(Oc2cccc3scnc23)C1` [Example 333, 3-(Benzo[d]thiazol-4-yloxy)-N-(5-cyclopropyl-1,3,4-thiadiazol-2-yl)azetidine-1-carboxamide] showed an IC50 of under 10 nM.
`COC(=O)C12CCC(NC(=O)[C@H]3C[C@H](Oc4cccc5scnc45)C3)(CC1)CC2` [Example 326, Methyl 4-((trans)-3-(benzo[d]thiazol-4-yloxy)cyclobutane-1-carboxamido)bicyclo[2.2.2]octane-1-carboxylate] was tested, and the IC50 was 10 to 79.4 nM.
With `CCOC(=O)Cc1csc(NC(=O)[C@H]2C[C@H](Oc3cccc4ccoc34)C2)n1` [Example 262, Ethyl 2-(2-((trans)-3-(benzofuran-7-yloxy)cyclobutanecarboxamido)thiazol-4-yl)acetate] the IC50 was 10 to 79.4 nM.
`COc1ccc(F)cc1O[C@H]1C[C@H](C(=O)NC2CCN(c3nccs3)CC2)C1` [Example 154, (trans)-3-(5-Fluoro-2-methoxyphenoxy)-N-(1-(thiazol-2-yl)piperidin-4-yl)cyclobutanecarboxamide] was tested, and the IC50 was 10 to 79.4 nM.
`O=C1Nc2ccccc2C1NC(=O)[C@H]1C[C@H](Oc2cc(F)ccc2OC(F)F)C1` (mixture of isomers) [Example 24, Racemic (trans)-3-(2-(Difluoromethoxy)-5-fluorophenoxy)-N-(2-oxoindolin-3-yl)cyclobutanecarboxamide] gave an IC50 of 10 to 79.4 nM.
Work on `O=C(NC1CN(c2ncc(F)cn2)C1)[C@H]1C[C@H](Oc2cc(F)ccc2OC(F)F)C1` [Example 8, (trans)-3-(2-(Difluoromethoxy)-5-fluorophenoxy)-N-(1-(5-fluoropyrimidin-2-yl)azetidin-3-yl)cyclobutanecarboxamide] yielded an IC50 of 10 to 79.4 nM.
`CC(C)(O)C12CC(NC(=O)N3CC(Oc4cccc5scnc45)C3)(C1)C2` [Example 316, 3-(Benzo[d]thiazol-4-yloxy)-N-(3-(2-hydroxypropan-2-yl)bicyclo[1.1.1]pentan-1-yl)azetidine-1-carboxamide] gave an IC50 of 100 to 1000 nM.
Work on `O=C(NC1CCN(CC(F)(F)F)CC1)N1CC(Oc2cccc3scnc23)C1` [Example 91, 3-(Benzo[d]thiazol-4-yloxy)-N-(1-(2,2,2-trifluoroethyl)piperidin-4-yl)azetidine-1-carboxamide] yielded an IC50 of 10 to 79.4 nM.
With `O=C(NC12CC(Nc3ncccn3)(C1)C2)[C@H]1C[C@H](Oc2cccc3scnc23)C1` [Example 315, (trans)-3-(Benzo[d]thiazol-4-yloxy)-N-(3-(pyrimidin-2-ylamino)bicyclo[1.1.1]pentan-1-yl)cyclobutane-1-carboxamide] the IC50 was 10 to 79.4 nM.
Work on `O=C(NC1CN(CC(F)F)C1)[C@H]1C[C@H](Oc2cc(F)ccc2OC(F)F)C1` [Example 15, (trans)-N-(1-(2,2-Difluoroethyl)azetidin-3-yl)-3-(2-(difluoromethoxy)-5-fluorophenoxy)cyclobutanecarboxamide] yielded an IC50 of 100 to 1000 nM.
Work on `O=C(NC1CN(c2ncc(CO)cn2)C1)[C@H]1C[C@H](Oc2cc(F)cc3scnc23)C1` [Example 114, (trans)-3-((6-Fluorobenzo[d]thiazol-4-yl)oxy)-N-(1-(5-(hydroxymethyl)pyrimidin-2-yl)azetidin-3-yl)cyclobutanecarboxamide] yielded an IC50 of 10 to 79.4 nM.
`O=C(NC1CCN(c2ncc(F)cn2)CC1)[C@H]1C[C@H](Oc2cc(F)cc3scnc23)C1` [Example 117, (trans)-3-((6-Fluorobenzo[d]thiazol-4-yl)oxy)-N-(1-(5-fluoropyrimidin-2-yl)piperidin-4-yl)cyclobutanecarboxamide] was tested, and the IC50 was 10 to 79.4 nM.
Compound `COc1ccc(F)cc1O[C@H]1C[C@H](C(=O)N[C@H]2CC[C@H](OC)CC2)C1` [Example 150, (trans)-3-(5-Fluoro-2-methoxyphenoxy)-N-((trans)-4-methoxycyclohexyl)cyclobutanecarboxamide] has an IC50 of 10 to 79.4 nM.
In the case of `O=C(NC1CCN(c2ccccn2)C1)[C@H]1C[C@H](Oc2cccc3scnc23)C1` (mixture of isomers) [Example 82, Racemic (trans)-3-(Benzo[d]thiazol-4-yloxy)-N-(1-(pyridin-2-yl)pyrrolidin-3-yl)cyclobutanecarboxamide], the IC50 is reported as 10 to 79.4 nM.
`CC(N[C@H]1CC[C@H](NC(=O)[C@H]2C[C@H](Oc3cccc4scnc34)C2)CC1)C(F)F` (mixture of isomers) [Example 46, Racemic (trans)-3-(Benzo[d]thiazol-4-yloxy)-N-((trans)-4-((1,1-difluoropropan-2-yl)amino)cyclohexyl)cyclobutanecarboxamide] gave an IC50 of 10 to 79.4 nM.
For `O=C(Nc1ncco1)[C@H]1C[C@H](Oc2cccc3cccnc23)C1` [Example 208, (trans)-N-(Oxazol-2-yl)-3-(quinolin-8-yloxy)cyclobutanecarboxamide], the IC50 was 100 to 1000 nM.

Source: patent publication US11053234B2 (GlaxoSmithKline Intellectual Property Development Limited, priority 2016, dated 2021)
